Source: patent US11040048B2, “Medicament for treating influenza characterized by combining a Cap-dependent endonuclease inhibitor and an anti-influenza drug” (Shionogi & Co., Ltd., priority 2015, dated 2021)
Several values for one entry are separate records, joined by “and”; a condition that tells them apart may be missing. Identical values can stand only once. Like-named read-outs stand apart in the source and are kept apart here.

Key:
B/Maryland/1/59 = assay: microbe, parasite or virus in culture; assay type: cell-based, influenza virus
influenza virus A = assay: Synergistic CPE inhibitory effect confirming assay, summary for influenza A strains; assay type: cell-based
A/PR/8/34 (H1N1) = assay: microbe, parasite or virus in culture; assay type: cell-based, influenza virus; conditions: single agent, MDCK
A/Victoria/3/75 (H3N2) = assay: microbe, parasite or virus in culture; assay type: cell-based; conditions: Influenza A virus, single agent, MDCK
A/HongKong/8/68 (H3N2) = assay: Synergistic CPE inhibitory effect confirming assay, MDCK cells; assay type: cell-based; conditions: Influenza A virus, single agent
A/WSN/33 (H1N1) = assay: as above; assay type: cell-based; conditions: Influenza A virus, single agent
[1] = molecular target: cap-dependent endonuclease (CEN); RNP fraction containing PB1-PB2-PA complex (Influenza A virus, UniProt P15659); assay: biochemical
in vivo = assay: in vivo; parameters: species or system mice or SD rats
Protocol: (1) Experimental animals: mice or SD rats were used.
(2) Rearing condition: mice or SD rats were allowed free access to solid feed and sterilized tap water.
(3) Setting of dosage and grouping: Oral administration and intravenous administration were performed with the predetermined dosage. Grouping was set as below. (Dosage was changed per compound)
Oral administration 1 to 30 mg/kg (n=2 to 3)
Intravenous administration 0.5 to 10 mg/kg (n=2 to 3)
(4) Preparation of administration solutions: Oral administration was performed as solution or suspension. Intravenous administration was performed after solubilization.
(5) Routes of administration: Oral administration was performed mandatory into the stomach by oral sonde. Intravenous administration was performed from caudal vein by syringes with needle.
(6) Evaluation items: Blood was collected serially and concentration of a compound of the present invention in plasma was measured by LC/MS/MS.
(7) Statistical analysis: About transition of concentration of a compound of the present invention in plasma, the area under the plasma concentration versus time curve (AUC) was calculated by non-linear least-squares method program, WinNonlin (a registered trademark), and bioavailability (BA) of a compound of the present invention was calculated from AUCs of the oral administration group and the intravenous administration group. […]

influenza virus = assay: CPE inhibitory effect confirming assay (WST-8); assay type: cell-based; conditions: unidentified influenza virus, read-out: CPE_EC50
[2] = rat, po
Text: FIG. 1 is a result of measuring the plasma concentration of Compound III-1, after oral administration of prodrug Compound II-4, the parent compound of which is Compound III-1, to rat under non-fasting conditions.
FIG. 2 is a result of measuring the plasma concentration of Compound II-4, after oral administration of prodrug Compound II-4, the parent compound of which is Compound III-1, to rat under non-fasting conditions.

[3] = monkey, in vivo, po
[4] = unidentified influenza virus, MDCK

SMILES: CCOC(=O)C1=C[C@@H](OC(CC)CC)[C@H](NC(C)=O)[C@@H](N)C1 [Oseltamivir]
- EC50 (B/Maryland/1/59; [4]): 864 nM
- proliferation inhibitory effect on influenza virus A (combination effect) (influenza virus A): synergistic
- EC50 (A/PR/8/34 (H1N1); Influenza A virus): 1830 nM
- EC50 (A/Victoria/3/75 (H3N2)): 245 nM
- EC50 (A/HongKong/8/68 (H3N2)): 71.2 nM
- EC50 (A/WSN/33 (H1N1)): 59300 nM

SMILES: O=C1c2c(O)c(=O)ccn2N([C@@H]2c3ccccc3CSc3ccccc32)[C@H]2COCCN12 (racemic) [Reference 715]
- IC50 [1]: 25.5 nM

SMILES: O=C1c2c(O)c(=O)ccn2N([C@@H]2c3ccccc3SCc3cccc(Cl)c32)[C@@H]2COCCN12 (racemic) [Reference 684]
- IC50 [1]: 19.7 nM

SMILES: NC(=O)c1nc(F)c[nH]c1=O [Favipiravir]
- EC50 (A/PR/8/34 (H1N1); Influenza A virus): 26900 nM

SMILES: O=C1c2c(O)c(=O)ccn2N([C@H]2c3ccc(F)cc3CSc3ccccc32)[C@@H]2COCCN12 [III-2]
- bioavailability (in vivo): 4.2%

SMILES: O=C(Nc1ncc([N+](=O)[O-])s1)c1ccccc1O [Tizoxanide]
- EC50 (A/Victoria/3/75 (H3N2)): 8310 nM

SMILES: O=C1c2c(O)c(=O)ccn2N([C@@H]2c3ccccc3SCc3cccc(Cl)c32)[C@H]2COCCN12 (racemic) [Reference 682]
- IC50 [1]: 104 nM

SMILES: O=C1c2c(O)c(=O)ccn2N([C@@H]2c3ccccc3CSc3ccccc32)[C@@H]2COCCN12 (racemic) [Reference 714]
- IC50 [1]: 95 nM

SMILES: O=C(O)[C@H]1C2CCC(CC2)[C@@H]1Nc1nc(-c2c[nH]c3ncc(F)cc23)ncc1F [VX-787, (2S,3S)-3-((5-Fluoro-2-(5-fluoro-1H-pyrrolo[2,3-b]pyridin-3-yl)pyrimidin-4-yl)amino)bicyclo[2.2.2]octane-2-carboxylic Acid]
- proliferation inhibitory effect on influenza virus A (combination effect) (influenza virus A): synergistic
- EC50 (A/PR/8/34 (H1N1); Influenza A virus): 9.38 nM

SMILES: NC12CC3CC(CC(C3)C1)C2 [Amantadine]
- EC50 (A/Victoria/3/75 (H3N2)): 2510 nM

SMILES: CC(N)C12CC3CC(CC(C3)C1)C2 (stereo not shown) [Rimantadine]
- EC50 (A/Victoria/3/75 (H3N2)): 158 nM

SMILES: O=C1c2c(O)c(=O)ccn2N([C@@H]2c3ccccc3SCc3c2ccc(F)c3F)[C@@H]2CC3(CCN12)COC3 [III-12]
- EC50 (influenza virus): 0.656 nM

SMILES: CCC(CC)[C@H](NC(C)=O)[C@@H]1[C@H](O)[C@@H](C(=O)O)C[C@H]1N=C(N)N [Peramivir, peramivir]
- EC50 (B/Maryland/1/59; single agent, B/Maryland/1/59, MDCK, read-out: EC50): 354 nM
- proliferation inhibitory effect on influenza virus A (combination effect) (influenza virus A): synergistic
- EC50 (A/PR/8/34 (H1N1)): 214 nM

SMILES: O=C1c2c(O)c(=O)ccn2N(C2c3ccccc3CSc3ccccc32)[C@@H]2CCCN12 (stereo partly shown) [Reference 583 or 584]
- IC50 [1]: 43.4 nM and 28.1 nM

SMILES: CC(=O)N[C@H]1[C@H]([C@H](O)[C@H](O)CO)OC(C(=O)O)=C[C@@H]1N=C(N)N [Zanamivir]
- EC50 (B/Maryland/1/59; [4]): 163 nM

SMILES: O=C1c2c(O)c(=O)ccn2N([C@@H]2c3ccccc3SCc3c2ccc(F)c3F)[C@@H]2CC3(CCOCC3)CCN12 [III-9]
- EC50 (influenza virus): 0.864 nM

SMILES: O=C1c2c(O)c(=O)ccn2N([C@@H]2c3ccccc3SCc3c2ccc(F)c3F)[C@@H]2COCCN12 [III-1]
- EC50 (B/Maryland/1/59; [4]): 14.7 nM
- EC50 (A/PR/8/34 (H1N1); Influenza A virus): 4.95 nM
- EC50 (A/Victoria/3/75 (H3N2)): 3.48 nM
- EC50 (A/HongKong/8/68 (H3N2)): 2.08 nM
- EC50 (A/WSN/33 (H1N1)): 2.85 nM

SMILES: COC(=O)OCOc1c2n(ccc1=O)N([C@@H]1c3ccccc3SCc3c1ccc(F)c3F)[C@@H]1COCCN1C2=O [II-4]
- concentration of prodrug in plasma samples ([2]; in vivo): a determination limit or less
- conversion of prodrug to parent compound in vivo after administration [2]: changed promptly to Compound III-1

SMILES: CC(=O)Oc1c2n(ccc1=O)N([C@@H]1c3ccccc3SCc3c1ccc(F)c3F)[C@@H]1COCCN1C2=O [II-2]
- plasma concentration of prodrug in all plasma samples [3]: a determination limit or less

SMILES: [H]/N=C(\N)N[C@H]1C=C(C(=O)O)O[C@@H]([C@H](OC)[C@H](O)CO)[C@@H]1NC(C)=O [Laninamivir, Laninaminivir]
- EC50 (B/Maryland/1/59; [4]): 110 nM
- proliferation inhibitory effect on influenza virus A (combination effect) (influenza virus A): synergistic
- EC50 (A/PR/8/34 (H1N1); Influenza A virus): 213 nM
